27 compounds from PubChem BioAssay (NCI) can be followed below.

What all share (test): growth of human tumour cells (NCI), 48 h
For assay [1], the system named is CAKI-1 renal.
Assay [2] relates to COLO 205 colon.
The subject of assay [3] is HL-60(TB) leukemia.
Assay [4] concerns HOP-92 NSCLC.
Assay [5] deals with NCI-H226 lung.
Assay [6] relates to OVCAR-5 ovarian.
In assay [7] the test system is RPMI-8226 leukemia.
Assay [8] relates to SK-MEL-5 melanoma.
For assay [9], the system named is HCC-2998 colon.
Assay [10] relates to HOP-62 NSCLC.

Where “and” joins values, the source holds several entries; their conditions need not be identical. Equal values may be shown once.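 48-hour exposure; five concentrations; linearly interpolated endpoints. Here, GI50 denotes the concentration required for 50% inhibition of growth. Definition used: TGI = concentration required for complete inhibition of growth.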

Consider `C#Cc1cccc(NC(=O)/C=C\C(=O)O)c1`, for which the TGI in assay [1], in [2], in assay [3], in assay [4], in [5] and in assay [6] was more than 100 µM each time. Further, the TGI in assay [7] and in [8] was more than 100 µM in each case.

Take `Cc1ccc(-n2c3nc(=O)n(C)c(=O)c-3nc3ccccc32)c(C)c1`: the TGI in assay [1] was 57.7 µM; in [2] it was 13 µM; in assay [9] it was 19 µM; in assay [3], 29.2 µM; in assay [10] it was more than 100 µM; in assay [5], 30.7 µM. Also, the TGI in [6] is 32.7 µM; in assay [7], 42.4 µM; in [8] it was 18.5 µM.

As for `CCOC1c2nc3ccccc3nc2-c2ccccc2N1C(C)=O` (configuration not stated), the TGI in [1], in assay [2], in assay [9], in assay [3], in assay [10] and in [4] was more than 100 µM throughout. Besides, in [7], the TGI was more than 100 µM.

As for `COC(=O)C1CCC(C)CC1=O` (configuration not stated), the TGI in assay [1], in assay [2], in assay [9], in assay [3], in assay [10] and in [4] was more than 100 µM in each case. Also, the TGI in assay [6], in [7] and in assay [8] was more than 100 µM in each case.

For the compound `[O-][n+]1c2cccc(O)c2[n+]([O-])c2cccc(O)c21`, the TGI in [1] was more than 100 µM; in assay [2], more than 100 µM; in assay [3], more than 100 µM; in assay [10] it was more than 100 µM; in [4], 97.5 µM; in assay [6], more than 100 µM. Besides, the TGI was 83.3 µM in assay [7] and more than 100 µM in assay [8].

On to `CCC(Oc1ccc(OC)c2c1C(=O)CCC2)C(=O)O` (configuration not stated), for which the TGI in [2], in assay [9], in [3], in assay [10], in [5] and in assay [6] was more than 100 µM each time. The TGI in assay [7] and in [8] was more than 100 µM each time.

Regarding `Cc1cc(OC2OC(CO)C(O)C(O)C2O)ccc1O` (configuration not stated), the TGI in assay [1], in [2], in assay [9], in assay [3], in assay [10] and in assay [4] was more than 100 µM each time. Further, the TGI in assay [6], in assay [7] and in [8] was more than 100 µM each time.

As to `CCOC(=O)C1C(c2ccc(Br)cc2)N(Cc2ccccc2)C(c2ccc(Br)cc2)C(C(=O)OC)S1(=O)=O` (configuration not stated), the TGI in assay [1], in assay [2], in assay [9], in [3], in assay [10] and in assay [5] was more than 100 µM each time. For the same compound, the TGI in assay [6] and in assay [7] was more than 100 µM throughout.

With `COS(=O)c1cc(Cl)cc(Cl)c1OC(=O)CSSCC(=O)Oc1c(Cl)cc(Cl)cc1S(=O)OC` (configuration not stated), the TGI amounted to 63.1 µM in assay [1]; 44.8 µM in assay [2]; 40.3 µM in assay [9]; 52.9 µM in assay [3]; 53.2 µM in assay [4]; 41.2 µM in assay [6]. The TGI is 38.3 µM in assay [7] and 32.4 µM in assay [8].

In the case of `O=C1C=CC2(CCC23C=CC(=O)O3)O1` (configuration not stated), the TGI in assay [2], in [9], in [3], in assay [10], in assay [5] and in assay [6] was more than 100 µM in each case. This compound came in with a TGI in [7] of more than 100 µM.

`CCCCCCCCCCCCCCCC(=O)OCC1OC(n2cc(F)c(=O)[nH]c2=O)C(NC(=O)OCc2ccccc2)C(O)C1O` (configuration not stated): the TGI in assay [1] came to 33.8 µM; in assay [2], 34 µM; in assay [9], 31.9 µM; in assay [3], 43.1 µM; in assay [4], 31.5 µM; in assay [6] it was 39.8 µM. Moreover, the TGI in assay [7] came out at 39.3 µM; in [8] it was 36.1 µM.

Take `Nc1c(C(=O)Nc2ccccc2)sc2nc3c(cc12)C(=O)CCC3`: the GI50 was 0.485 µM in assay [1]; 0.364 µM in assay [2]; 1.2 µM in [9]; 0.587 µM in [3]; 0.745 µM in assay [10]; 3.91 µM in assay [5]. For the same compound, the GI50 in [6] was 1.28 µM; in assay [7], 0.303 µM; in assay [8], 0.249 µM. In addition, the TGI was more than 100 µM in assay [1]; 2.99 µM in assay [2]; more than 100 µM in assay [9]; more than 100 µM in assay [3]; more than 100 µM in assay [10]; more than 100 µM in assay [5]. The TGI in assay [6] was more than 100 µM; in assay [7], more than 100 µM; in assay [8], 5.7 µM.

Regarding `N#Cc1ccccc1Sc1ccccc1N`, the TGI in [1] is more than 100 µM; in assay [2] it was more than 100 µM; in assay [3], more than 100 µM; in assay [10], more than 100 µM; in [4] it was more than 100 µM; in assay [5] it was 71.6 µM. Besides, the values for the TGI in assay [6] and in assay [8] were more than 100 µM and 77.3 µM, respectively.

Take `COc1ccc([C@@]23Oc4cc(OC)cc(OC)c4[C@]2(O)[C@H](O)[C@H](C(=O)N(C)C)[C@H]3c2ccccc2)cc1`: the GI50 in [1] is 0.0218 µM; in [10] it was 0.0152 µM; in [4] it was 0.0304 µM; in assay [6], 0.0116 µM; in assay [7], 0.0164 µM; in [8], 0.0227 µM. Further, the TGI in [1] was 0.225 µM and 0.692 µM and 0.262 µM; in [2], 0.0197 µM; in assay [9], 0.0615 µM and 0.224 µM; in [4], 0.0741 µM and 0.4 µM; in assay [6], 0.0626 µM and 0.0694 µM and 0.0417 µM; in assay [8], 0.0144 µM and 0.139 µM.

For the compound `CCOC(=O)C1=C(C)N(NC(N)=O)C2(N)N(NC(N)=O)C(C)=C(C(=O)OCC)C12C#N` (configuration not stated), the TGI in [1], in assay [9], in assay [10], in assay [5], in assay [6] and in [7] was more than 100 µM in each case. Also, the TGI in assay [8] is more than 100 µM.

On to `COc1ccc(N(CC(=O)O)N=O)cc1`, for which the TGI in [1], in assay [2], in [3], in assay [10], in assay [4] and in [5] was more than 100 µM each time. The TGI in assay [6], in assay [7] and in assay [8] was more than 100 µM in each case.

For the compound `Nc1nc(-c2ccccc2)c(CC(=O)O)s1`, the TGI is more than 100 µM in assay [1]; more than 100 µM in assay [2]; 83.1 µM in [3]; more than 100 µM in assay [10]; more than 100 µM in assay [4]; more than 100 µM in assay [5]. The TGI in [6], in assay [7] and in assay [8] was more than 100 µM in each case.

Take `COc1ccccc1/C=C(\NC(=O)c1ccccc1)c1nc2ccc(Cl)cc2[nH]1`: the TGI in assay [1] is 74.4 µM; in assay [2] it was 38.8 µM; in [4] it was 56.8 µM; in [5], 58 µM; in [6], more than 100 µM; in [7], 38.5 µM. The compound also gave a TGI in assay [8] of 33.7 µM.

On to `Cc1ccc(-n2nc(C(OC3OC(CO)C(O)C(O)C3O)C(O)CO)c3nc4cc(C)c(C)cc4nc32)cc1` (configuration not stated), for which the TGI in assay [9], in [10], in assay [6] and in [7] was more than 100 µM throughout.

As to `Cc1ccc(C(=O)Nc2ccc(Oc3cc4cnn(C)c4cc3-c3cn[nH]c3)c(F)c2)c(=O)n1-c1ccc(F)cc1`, the GI50 is 3.25 µM in [1]; 5.36 µM in assay [2]; more than 100 µM in assay [9]; more than 37.9 µM in assay [10]; 2.34 µM in assay [4]; 2.16 µM in [5]. Also, the GI50 was 10.9 µM in assay [6], more than 48 µM in [7] and 5.59 µM in assay [8]. For the same compound, the TGI in assay [1], in assay [2], in assay [9], in assay [10], in assay [4] and in assay [5] was more than 100 µM throughout. Also, the TGI in assay [6], in assay [7] and in assay [8] was more than 100 µM in each case.

For the compound `CN1CCCc2nc3ccccc3n2C1`, the TGI in assay [1], in assay [2], in assay [3], in assay [10], in assay [4] and in [5] was more than 100 µM each time. For the same compound, the TGI in assay [6] was more than 100 µM; in assay [7] it was 68.8 µM; in [8] it was more than 100 µM.

In the case of `Oc1cn(-c2ccc(Cl)cc2)nc1-c1n[nH]c(=S)n1-c1ccc(F)cc1`, the GI50 is 40.5 µM in assay [1]; 61.4 µM in assay [2]; 22.7 µM in [10]; 32.2 µM in [4]; 26.6 µM in assay [5]; 32 µM in assay [6]. Moreover, the GI50 in assay [7] was 22.2 µM; in [8], 14.3 µM. Also, the TGI in assay [1] is more than 100 µM; in assay [2] it was more than 100 µM; in [10] it was 54.6 µM; in assay [4] it was more than 100 µM; in assay [5], 90.2 µM; in assay [6], more than 100 µM. The TGI in [7] was more than 100 µM; in assay [8], 35.9 µM.

On to `CCOC(=O)c1cn(C)c2c(OC)c3ccccc3c(OC)c2c1=O`, for which the GI50 is 29.7 µM in assay [1]; 63.8 µM in assay [2]; 35.9 µM in [3]; 33.3 µM in assay [10]; 23.8 µM in [5]; 30.9 µM in assay [6]. The GI50 in [7] is 23.8 µM. Further, the TGI in assay [1] is 76.8 µM; in assay [2] it was more than 100 µM; in assay [3], more than 100 µM; in assay [10], 82.7 µM; in assay [5], 57.1 µM; in assay [6], more than 100 µM. The compound also showed a TGI in [7] of more than 100 µM.

For `C=C1C(=O)O[C@@H]2C[C@@]3(C)[C@H](O)CCC(=C)[C@@H]3C[C@H]12`, the TGI is 19.6 µM in [1]; 7.09 µM in assay [2]; 23.8 µM in assay [9]; 34 µM in assay [10]; 18.2 µM in [4]; 25.7 µM in assay [5]. The TGI in assay [6] stood at 20.5 µM; in assay [7], 13.4 µM; in [8], 16.8 µM.

As for `CC(=O)C1(C(=O)C(=[N+]=[N-])S(=O)(=O)c2ccccc2)CC1`, the TGI in [2], in assay [9], in [3], in assay [10], in [5] and in assay [6] was more than 100 µM in each case. Moreover, the TGI in assay [7] and in assay [8] was more than 100 µM each time.

For the compound `COc1cc2c(c3c1c(=O)c1ccccc1n3C)C=C([N+](=O)[O-])C(C)(C)O2`, the TGI in assay [1], in assay [3], in [10], in assay [4], in assay [5] and in assay [6] was more than 100 µM throughout. In addition, the TGI in assay [7] is more than 31.6 µM; in assay [8], 0.0567 µM.

For `O=C(Nc1ccccc1C(=O)NC(=O)c1ccccc1NC(=O)c1ccccc1)c1ccccc1`, the TGI in assay [1] was 29.1 µM; in assay [2], 2.87 µM; in [10], 36.4 µM; in [4], 6.5 µM; in assay [6], 13.5 µM; in assay [7], 8.23 µM. This compound also returned a TGI in assay [8] of 12.2 µM.
